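Growth conditions: 96-well plates. Treatment: test compound, 48 hours, 5 concentrations. Analysis: linear interpolation between bracketing concentrations; unreached endpoints set to highest concentration. TGI is the concentration that stops growth completely.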
Key:
Test in all cases: NCI tumour cell line growth inhibition, 48 h
RPMI-8226 leukemia = system: RPMI-8226 leukemia
NCI/ADR-RES ovarian = system: NCI/ADR-RES ovarian
HOP-92 NSCLC = system: HOP-92 NSCLC
MDA-MB-231 breast = system: MDA-MB-231 breast
ACHN renal = system: ACHN renal
MCF7 breast = system: MCF7 breast
LOX IMVI melanoma = system: LOX IMVI melanoma
COLO 205 colon = system: COLO 205 colon
HCT-116 colon = system: HCT-116 colon
HL-60(TB) leukemia = system: HL-60(TB) leukemia
A498 renal = system: A498 renal
NCI-H522 lung = system: NCI-H522 lung
T-47D breast = system: T-47D breast
UACC-257 melanoma = system: UACC-257 melanoma
MDA-MB-435 = system: MDA-MB-435
SK-OV-3 ovarian = system: SK-OV-3 ovarian
SK-MEL-5 melanoma = system: SK-MEL-5 melanoma
HCC-2998 colon = system: HCC-2998 colon
HT29 colon = system: HT29 colon
CCRF-CEM leukemia = system: CCRF-CEM leukemia

O=C1C(=O)c2c(oc(=O)c3ccccc23)-c2ccccc21
TGI (RPMI-8226 leukemia): > 25 µM | TGI (NCI/ADR-RES ovarian): > 25 µM | TGI (HOP-92 NSCLC): > 25 µM | TGI (MDA-MB-231 breast): > 25 µM | TGI (ACHN renal): > 25 µM | TGI (MCF7 breast): > 25 µM | TGI (LOX IMVI melanoma): > 25 µM | TGI (COLO 205 colon): > 25 µM | TGI (HCT-116 colon): > 25 µM | TGI (HL-60(TB) leukemia): 15 µM | TGI (A498 renal): > 25 µM | TGI (NCI-H522 lung): > 25 µM | TGI (T-47D breast): > 25 µM | TGI (UACC-257 melanoma): > 25 µM | TGI (MDA-MB-435): 20.9 µM | TGI (SK-OV-3 ovarian): > 25 µM | TGI (SK-MEL-5 melanoma): > 25 µM | TGI (HCC-2998 colon): > 25 µM | TGI (HT29 colon): > 25 µM | TGI (CCRF-CEM leukemia): > 25 µM

Reference: PubChem BioAssay (NCI)
